# In patent US6414003B1, “Oxazolone derivatives and their use as anti-helicobacter pylori agents” (Takeda Chemical Industries, Ltd., priority 1996, dated 2002):
# Columns and labels:
# H. pylori CPY 433 = assay: In vitro antimicrobial test (agar dilution method); assay type: cell-based, Helicobacter pylori; settings: Brucella agar with 7% horse blood
# H. pylori TN 58 = assay: In vitro antimicrobial test (agar dilution method); assay type: cell-based, Helicobacter pylori; settings: Brucella agar with 7% horse blood
# [1] = test system: Helicobacter pylori NCTC 11637; assay: In vitro antimicrobial test (agar dilution method); assay type: cell-based; settings: Brucella agar with 7% horse blood, 37° C., 4 days
# H. pylori TN 2 = assay: In vitro antimicrobial test (agar dilution method); assay type: cell-based, Helicobacter pylori; settings: Brucella agar with 7% horse blood
# [2] = test system: Helicobacter pylori TN2GF4; assay: In vivo antimicrobial activity test in infected mongolian gerbils; settings: for Clearance Rate: mongolian gerbils infected with H. pylori TN2GF4; for Bacterial Detection: mean±standard deviation
# Experimental: After mongolian gerbils (MGS/Sea, male, 6 weeks of age) were fasted for 24 hours, Helicobacter pylori TN2GF4 was inoculated to the stomach at 10^7.08 per mongolian gerbil. Starting at 11 days after infection, a 3, 10, 30, or 100 mg/kg suspension of the test compound in a 0.5% aqueous solution of methyl cellulose was orally administered twice daily (morning and evening) for 3 days. On the day after final administration, the stomach of each infected mongolian gerbil was excised and disrupted; a series of 10-fold dilutions of the stomach homogenate were each inoculated to modified Skirrow's medium supplemented with activated charcoal and cultured under microaerophilic conditions at 37° C. for 4 days, after which clearance effect was assessed on the basis of the presence or absence of bacterial growth. Bacterial cell counts are expressed in mean±standard deviation after Dunnett's test against the control group.
# In Table 4, ** indicates p<0.01.
# H. pylori NCTC 11916 = assay: In vitro antimicrobial test (agar dilution method); assay type: cell-based, Helicobacter pylori; settings: Brucella agar with 7% horse blood
# Experimental: (§1) Using 5 strains of Helicobacter pylori, 19 other bacterial species and 2 yeast species as test strains, the antimicrobial activities of various compounds were determined by the method described below (agar dilution method). The test compound was dissolved in dimethyl sulfoxide; this solution was 2-fold diluted step by step with sterilized distilled water to yield test samples. Two milliliters of each test sample was mixed with 18 ml of Brucella agar supplemented with 7% horse blood as a medium to prepare a determination plate. Helicobacter pylori was subjected to shaking culture at 37° C. in a gas pack jar incorporating CampyPak™ (BBL^R Beckton Dickinson Microbiology Systems) for 20 hours, using Brucella broth medium supplemented with 2.5% fetal bovine serum, to yield a seed inoculum. The other test microorganisms were each cultured at 37° C. for 20 hours, using Brucella broth medium, to yield respective seed inocula.
# Five microliters of each seed inoculum, previously adjusted to about 10^6 CFU/ml using Brucella broth medium supplemented with 2.5% fetal bovine serum was inoculated to each determination plate, and cultured at 37° C. in a gas pack jar incorporating CampyPak™ and water-soaked cotton absorbent for 4 days. […]
# [3] = test system: Staphylococcus aureus FDA 209P; assay: In vitro antimicrobial test (agar dilution method); assay type: cell-based; settings: Brucella agar with 7% horse blood, 37° C., 4 days
# Experimental: as §1
# (§2) Five microliters of each seed inoculum, previously adjusted to about 10^6 CFU/ml using Brucella broth medium supplemented with 2.5% fetal bovine serum was inoculated to each determination plate, and cultured at 37° C. in a gas pack jar incorporating CampyPak™ and water-soaked cotton absorbent for 4 days. After cultivation, strain growth was macroscopically examined; the minimum concentration for the absence of strain growth was taken as the MIC value (minimum inhibitory concentration) of the test compound.
# Bacillus cereus IFO 3514 = assay: In vitro antimicrobial test (agar dilution method); assay type: cell-based; settings: Brucella agar with 7% horse blood, 37° C., 4 days
# Experimental: as §1, §2
# [4] = test system: Bacillus megaterium IFO 12108; assay: In vitro antimicrobial test (agar dilution method); assay type: cell-based; settings: Brucella agar with 7% horse blood, 37° C., 4 days
# Experimental: as §1, §2
# [5] = test system: Saccharomyces cerevisiae IFO 0209; assay: In vitro antimicrobial test (agar dilution method); assay type: cell-based; settings: Brucella agar with 7% horse blood, 37° C., 4 days
# Experimental: as §1, §2
# [6] = test system: Proteus mirabilis ATCC 21100; assay: In vitro antimicrobial test (agar dilution method); assay type: cell-based; settings: Brucella agar with 7% horse blood, 37° C., 4 days
# Experimental: as §1, §2
# [7] = test system: Micrococcus flavus IFO 3242; assay: In vitro antimicrobial test (agar dilution method); assay type: cell-based; settings: Brucella agar with 7% horse blood, 37° C., 4 days
# Experimental: as §1, §2
# [8] = test system: Alcaligenes faecalis IFO 13111; assay: In vitro antimicrobial test (agar dilution method); assay type: cell-based; settings: Brucella agar with 7% horse blood, 37° C., 4 days
# Experimental: as §1, §2
# [9] = test system: Micrococcus luteus IFO 12708; assay: In vitro antimicrobial test (agar dilution method); assay type: cell-based; settings: Brucella agar with 7% horse blood, 37° C., 4 days
# Experimental: as §1, §2
# [10] = test system: Candida albicans IFO 0583; assay: In vitro antimicrobial test (agar dilution method); assay type: cell-based; settings: Brucella agar with 7% horse blood, 37° C., 4 days
# Experimental: as §1, §2
# [11] = test system: Escherichia coli NIHJ JC-2; assay: In vitro antimicrobial test (agar dilution method); assay type: cell-based; settings: Brucella agar with 7% horse blood, 37° C., 4 days
# Experimental: as §1, §2
# [12] = test system: Proteus morganii IFO 3168; assay: In vitro antimicrobial test (agar dilution method); assay type: cell-based; settings: Brucella agar with 7% horse blood, 37° C., 4 days
# Experimental: as §1, §2
# [13] = test system: Citrobater freundii IFO 12681; assay: In vitro antimicrobial test (agar dilution method); assay type: cell-based; settings: Brucella agar with 7% horse blood, 37° C., 4 days
# Experimental: as §1, §2
# [14] = test system: Salmonella typhimurium IFO 12529; assay: In vitro antimicrobial test (agar dilution method); assay type: cell-based; settings: Brucella agar with 7% horse blood, 37° C., 4 days
# Experimental: as §1, §2
# [15] = test system: Serratia marcescens IFO 3046; assay: In vitro antimicrobial test (agar dilution method); assay type: cell-based; settings: Brucella agar with 7% horse blood, 37° C., 4 days
# Experimental: as §1, §2
# [16] = test system: Klebsiella pneumoniae IFO 3317; assay: In vitro antimicrobial test (agar dilution method); assay type: cell-based; settings: Brucella agar with 7% horse blood, 37° C., 4 days
# Experimental: as §1, §2
# [17] = test system: Bacillus pumilus IFO 3813; assay: In vitro antimicrobial test (agar dilution method); assay type: cell-based; settings: Brucella agar with 7% horse blood, 37° C., 4 days
# Experimental: as §1, §2
# [18] = test system: Pseudomonas aeruginosa IFO 3080; assay: In vitro antimicrobial test (agar dilution method); assay type: cell-based; settings: Brucella agar with 7% horse blood, 37° C., 4 days
# Experimental: as §1, §2
# [19] = test system: Proteus vulgaris IFO 3045; assay: In vitro antimicrobial test (agar dilution method); assay type: cell-based; settings: Brucella agar with 7% horse blood, 37° C., 4 days
# Experimental: as §1, §2
# [20] = test system: Salmonella enteritidis IFO 3313; assay: In vitro antimicrobial test (agar dilution method); assay type: cell-based; settings: Brucella agar with 7% horse blood, 37° C., 4 days
# Experimental: as §1, §2
# [21] = test system: Bacillus subtilis PCI 219; assay: In vitro antimicrobial test (agar dilution method); assay type: cell-based; settings: Brucella agar with 7% horse blood, 37° C., 4 days
# Experimental: as §1, §2
# Escherichia coli K12 = assay: In vitro antimicrobial test (agar dilution method); assay type: cell-based; settings: Brucella agar with 7% horse blood, 37° C., 4 days
# Experimental: as §1, §2
# [22] = 3 mg/kg orally twice daily for 3 days
smiles,measurement,setting,value
"C[C@H](c1c[nH]c2ccccc12)[C@@H]1OC(N(C)C(=O)OCc2ccccc2)=NC1=O [Example 2, (5S)-2-(N-Benzyloxycarbonyl-N-methyl)amino-5[(1R)-1-(indol-3-yl)ethyl]-2-oxazolin-4-one]",MIC,H. pylori CPY 433,0.05 µg/mL
same,MIC,H. pylori TN 58,0.05 µg/mL
same,MIC,[1],0.025 µg/mL
same,MIC,H. pylori TN 2,0.025 µg/mL
"CN=C1NC(=O)[C@H]([C@H](C)c2c[nH]c3ccccc23)O1 [Indolmycin, indolmycin]",MIC,H. pylori CPY 433,0.013 µg/mL
same,MIC,H. pylori TN 58,0.025 µg/mL
same,Clearance Rate,[2]; [22],0/5 (0) %
same,Bacterial Detection,[2]; [22],4.61 ± 1.84 log CFU/gastric wall
same,gastric bacterial cell count (in words),"[2]; 10 mg/kg or higher, mongolian gerbil",reduced the mongolian gerbil gastric bacterial cell count with dose dependency
same,Clearance Rate,[2]; 10 mg/kg orally twice daily for 3 days,0/5 (0) %
same,Bacterial Detection,"[2]; 10 mg/kg orally twice daily for 3 days, ** p<0.01 vs control",2.76 ± 1.04** log CFU/gastric wall
same,Clearance Rate,[2]; 30 mg/kg orally twice daily for 3 days,1/4 (25) %
same,Clearance Rate,"[2]; 30 mg/kg orally twice daily for 3 days, listed as indolmycin",25%
same,Bacterial Detection,"[2]; 30 mg/kg orally twice daily for 3 days, ** p<0.01 vs control",1.96 ± 0.78** log CFU/gastric wall
same,Clearance Rate,[2]; 100 mg/kg orally twice daily for 3 days,4/5 (80) %
same,Clearance Rate,"[2]; 100 mg/kg orally twice daily for 3 days, listed as indolmycin",80%
same,Bacterial Detection,"[2]; 100 mg/kg orally twice daily for 3 days, ** p<0.01 vs control",1.48 ± 0.00** log CFU/gastric wall
same,MIC,[1],0.006 µg/mL
same,MIC,H. pylori NCTC 11916,0.013 µg/mL
same,MIC,H. pylori TN 2,0.006 µg/mL
same,MIC,[3],>100 µg/mL
same,MIC,Bacillus cereus IFO 3514,>100 µg/mL
same,MIC,[4],>100 µg/mL
same,MIC,[5],>100 µg/mL
same,MIC,[6],>100 µg/mL
same,MIC,[7],>100 µg/mL
same,MIC,[8],>100 µg/mL
same,MIC,[9],12.5 µg/mL
same,MIC,[10],>100 µg/mL
same,MIC,[11],>100 µg/mL
same,MIC,[12],>100 µg/mL
same,MIC,[13],>100 µg/mL
same,MIC,[14],>100 µg/mL
same,MIC,[15],>100 µg/mL
same,MIC,[16],>100 µg/mL
same,MIC,[17],>100 µg/mL
same,MIC,[18],>100 µg/mL
same,MIC,[19],>100 µg/mL
same,MIC,[20],>100 µg/mL
same,MIC,[21],>100 µg/mL
same,MIC,Escherichia coli K12,>100 µg/mL
